From patent US20120315283A1, “METHODS OF PROMOTING TISSUE GROWTH AND TISSUE REGENERATION” (DANA-FARBER CANCER INSTITUTE, INC., priority 2010, published 2012) come the findings set out here.

Entries after “also recorded” stand apart in the source; their conditions may differ.

The subject of assay [1] is Lewis lung carcinoma (LLC). The assay is described as follows: Spontaneous LLC metastasis model (primary tumor resection). To be noted: for spontaneous LLC lung metastasis / spontaneous LLC liver, kidney and lymph node metastasis: after LLC resection, 12 days, t-AUCB and TUPS 10 mg/kg/day; for spontaneous LLC lung metastasis: 14,15-EET and 14,15-DHET 15 μg/kg/day; for spontaneous LLC liver, kidney and lymph node metastasis: 14,15-EET 15 μg/kg/day, vehicle-treated mice do not develop liver metastasis; for 14,15-EET-induced spontaneous LLC (lung) metastasis: EET antagonist 0.21 mg/mouse co-administered with 14,15-EET 15 μg/kg/day following LLC resection, day 12. It counts as in vivo, mouse. An excerpt:
The role of non-cell autonomous effects of endothelial-derived EETs in tumor metastasis was unknown.

Assay [2] has as its system mice. The assay is described as follows: Liver regeneration following partial hepatectomy. Type of assay: in vivo, mouse. To be noted: day 4 following partial hepatectomy, 14,15-EET 15 μg/kg/day via minipump, TUPS 10 mg/kg/day; for liver regeneration: vs vehicle/control; for increase in liver regeneration (liver/body weight ratio): vs vehicle. An excerpt: There were no significant differences in liver/body weight ratio at baseline or following sham operation (FIG. 6D). […] Endothelial cell proliferation was increased in the Tie2-CYP2C8-Tr mice when compared to WT mice (FIG. 6D).

For assay [3], the system named is mice. The assay is described as follows: Endometriosis (ectopically implanted uterine tissue). Type of assay: in vivo, mouse. To be noted: systemic 14,15-EET 15 μg/kg/day via minipump.
Assay [4] has as its system Lewis lung carcinoma (LLC). The assay is described as follows: Primary LLC tumor growth. Type of assay: in vivo, mouse. To be noted: for primary LLC tumor growth: systemic, 14,15-EET 15 μg/kg/day minipump, t-AUCB in LLC-GFP tumors, 13 days of treatment, 14,15-EEZE 0.21 mg/mouse, established tumors.
Assay [5] relates to LLC tumor cells. The assay is described as follows: In vitro tumor cell production of VEGF, LLC. It counts as cell-based, mouse. Conditions: 14,15-EET.
Another assay relates to B16F10 tumor cells. The assay is described as follows: In vitro tumor cell production of VEGF, B16F10. It counts as cell-based, mouse. Conditions: 14,15-EET.
Another assay has as its system VEGF production. The assay is described as follows: β-galactosidase staining of LLC tumors in VEGF-LacZ-Tr mice. It counts as in vivo, mouse. To be noted: systemic 14,15-EET 15 μg/kg/day, absent in non-treated size-matched tumors. An excerpt: However, analysis of LLC tumors in VEGF-LacZ-Tr mice in which the LacZ reporter was introduced into the VEGF locus (A. S. Maharaj, M. Saint-Geniez, A. E. Maldonado, P. A. D'Amore, Am J Pathol 168, 639 2006).

Another assay concerns endothelial cells. The assay is described as follows: Endothelial cell migration. Type of assay: cell-based.
Assay [6] has as its system LLC tumor cells. The assay is described as follows: Tumor cell (LLC) migration. It counts as cell-based, mouse. Conditions: 14,15-EEZE.
The subject of another assay is B16F10 melanoma. The assay is described as follows: Spontaneous B16F10 metastasis after primary tumor resection. Type of assay: in vivo, mouse. To be noted: 21 days of treatment post B16F10 resection, 10 mg/kg/day.
Assay [7] concerns mice. The assay is described as follows: Wound healing (ear punch wound assay). It counts as in vivo, mouse. Conditions: systemic TUPS 10 mg/kg/day, day 4, vs vehicle. An excerpt:
In one embodiment, a full-thickness wound is effected by removing a section of skin (e.g., 1.5 mm diameter) from the dorsal surface (e.g., back) of an anesthetized animal by e.g., surgical incision. If so desired, the section of skin to be wounded can be pre-treated with a candidate pro-angiogenic factor prior to wound induction by e.g., subcutaneous injection. Alternatively, the wound can be treated using a candidate pro-angiogenic factor coincident with or immediately following wounding using methods known to one of skill in the art. The size, area, rate of healing, contraction and histology of the wound are assessed at different time points by methods known to those of skill in the art. The wound size of an animal is assessed by measuring the unclosed wound area compared to the original wound area. Wound healing can be expressed as either percent wound closure or percent wound closure rate. Wounds can be harvested at different time points by euthanizing the animal and removing a section of skin surrounding the wound site for histological analysis if so desired.
An ear punch model can also be used to assess rates of angiogenesis or wound healing, in a design similar to that for the full thickness dorsal back skin assay. The model consists of wounding the ear of an animal using a circular punch of a standard size (e.g., 2.25 mm). […]

The subject of assay [8] is mice. The assay is described as follows: Lung growth following left pneumonectomy. It counts as in vivo, mouse. Conditions: day 4 post left pneumonectomy, vs vehicle-treated mice, p<0.05. The source says: As shown herein, epoxyeicosatrienoic acids (EETs) stimulate angiogenesis, in part via the VEGF signaling network. Since compensated lung growth is dependent on VEGF-induced angiogenesis, it was hypothesized that endothelial cells (ECs) stimulate lung growth via production of EETs. To confirm the effects of CYP2C8 overexpression, EET levels were increased by inhibition of soluble epoxide hydrolase (sEH) following left penumonectomy. […] In contrast, there was no significant change in baseline lung volume/body weight ratio after sham operation.
As shown herein, epoxyeicosatrienoic acids (EETs) stimulate angiogenesis, in part via the VEGF signaling network. Since compensated lung growth is dependent on VEGF-induced angiogenesis, it was hypothesized that endothelial cells (ECs) stimulate lung growth via production of EETs. Transgenic (Tg) mice with EC-specific overexpression of CYP2C8 (Tie2 promoter-driven) were used to study the consequence of increased EETs on lung growth following left pneumonectomy. To confirm the effects of CYP2C8 overexpression, EET levels were increased by inhibition of soluble epoxide hydrolase (sEH). EC-specific overexpression of CYP2C8 promoted contralateral lung growth following unilateral pneumectomy. Lung volume/body weight on day 4 post-pneumonectomy were increased by 23% (p<0.001) in Tg mice compared to WT mice (FIG. 12). […]

The mark [9] stands for this setting: TSP1 null mice, 14,15-EEZE 0.21 mg/mouse.

Regarding `CCCCCC(O)C(O)C/C=C\C/C=C\C/C=C\CCCC(=O)O` (centres unmarked) [14,15-DHET], the “spontaneous LLC lung metastasis” value in [1] is reported as “has no effect relative to control; also recorded: does not stimulate metastasis”.
As to `CCCCCC1OC1C/C=C\C/C=C\C/C=C\CCCC(=O)O` (centres unmarked) [14,15-EET], in the assay on mice [2], the liver regeneration result is “stimulates liver regeneration” and the “increase in liver regeneration (liver/body weight ratio)” value stood at 21%. The increase in endometriosis with mice [3] (WT mice, day 6, vs vehicle) is reported as 254%. Also, the endometriosis result in the assay with mice [3] (day 6, percent of lesions established and area of established lesions) is given as “endometriosis is stimulated”. Further, the “primary LLC tumor growth” value in [4] is “significantly accelerated primary LLC tumor growth; also recorded: increases primary LLC tumor growth”. Further, in assay [1] (WT mice, 14,15-EET via osmotic mini-pumps at time of LLC resection, 12 days after resection, vs vehicle), the “increase in the number of surface lung metastases” value is recorded as 3 fold. In assay [1], the “spontaneous LLC liver, kidney and lymph node metastasis” value is “induction of liver, kidney and distant lymph node metastasis; also recorded: increases spontaneous LLC lung metastasis and distant femoral lymph node metastasis”; the “spontaneous LLC lung metastasis” value was “increases spontaneous lung and distant femoral lymph node metastasis; also recorded: increases spontaneous LLC lung metastasis”. Also, the “VEGF production by LLC tumor cells in vitro” value in the assay on LLC tumor cells [5] is “no significant effect”. Besides, the “VEGF production by B16F10 tumor cells in vitro” value with B16F10 tumor cells was “no significant effect”. Also, the “β-galactosidase staining (marker of VEGF production) in tumor endothelium and stromal fibroblasts” value in the assay with VEGF production is given as “show β-galactosidase staining; also recorded: stained positively”.
`CCCCCC1OC1CCCCCCCC=CCCCC(=O)NS(C)(=O)=O` (centres unmarked) [14,15-EEZE-mSI]: the “14,15-EET-induced spontaneous LLC (lung) metastasis” value in [1] is given as “inhibits lung metastasis induced by 14,15-EET; also recorded: inhibits 14,15-EET- (15 μg/kg/day) induced spontaneous LLC metastasis”.
On to `CCCCCC1OC1CCCCCCC/C=C\CCCC(=O)O` (centres unmarked) [14,15-EEZE], for which, in assay [4] (setting [9]), the “primary LLC tumor growth in TSP1 null mice” value is listed as “does not significantly inhibit primary LLC tumor growth” and the “tumor suppression by the EET antagonist” value is reported as 24%. Also, the “tumor suppression by the EET antagonist” value in assay [4] (WT mice, 14,15-EEZE 0.21 mg/mouse) came out at 62%. The “primary LLC tumor growth” value in assay [4] was “reduced primary LLC growth; also recorded: inhibits primary LLC growth”. The “14,15-EET-induced spontaneous LLC (lung) metastasis” value in assay [1] was “reduced lung metastasis”. Besides, the “14,15-EET-induced macroscopic liver and lymph node metastasis” value in assay [1] (EET antagonist co-administered with 14,15-EET following LLC resection) was “prevented macroscopic liver and lymph node metastasis”. For the same compound, the survival entry in assay [1] (LLC resection metastasis model, 14,15-EEZE 0.21 mg/mouse) was “prolongs survival”. Besides, the “plasma VEGF levels” value in assay [1] (spontaneous LLC lung metastasis model, 14,15-EEZE 0.21 mg/mouse) was “reduces plasma VEGF levels”. For the same compound, in the assay with endothelial cells (14,15-EEZE, dose-dependent), the “endothelial cell migration (VEGF-induced), inhibition” value is “inhibited endothelial migration in a dose-dependent fashion; also recorded: inhibits VEGF-induced endothelial cell”. Besides, in the assay with LLC tumor cells [6], the “migration of LLC tumor cells” value is recorded as “no significant effect; also recorded: not tumor cell (LLC) migration”.
Take `CS(=O)(=O)N1CCC(NC(=O)Nc2ccc(OC(F)(F)F)cc2)CC1` [TUPS, 1-(1-methanesulfonyl-piperidin-4-yl)-3-(4-trifluoromethoxy-phenyl)-urea]: in the assay with mice [2], the liver regeneration entry is listed as “increases liver regeneration” and the “increase in liver regeneration (liver/body weight ratio)” value amounted to 38%. In assay [1], the “spontaneous LLC liver, kidney and lymph node metastasis” value is on record as “induces spontaneous liver metastasis; also recorded: dramatically stimulated; also recorded: increase liver metastasis”; the “spontaneous LLC lung metastasis” value is recorded as “dramatically stimulated”. The “spontaneous B16F10 axillary lymph node metastasis” value in the assay with B16F10 melanoma is recorded as “dramatically stimulated; also recorded: increase spontaneous B16F10 axillary lymph node metastasis”. Besides, the wound healing entry in the assay with mice [7] is recorded as “accelerates wound healing; also recorded: significantly accelerated wound healing”. Besides, the “lung growth/body weight (lung regeneration)” value in the assay on mice [8] is recorded as “increase in lung regeneration; also recorded: stimulated lung growth/body weight”. Further, the VEGF-mediated endothelial migration entry in the assay on endothelial cells (VEGF-mediated) is “stimulate VEGF-mediated endothelial migration”. In the assay on endothelial cells (basal, without VEGF), the basal endothelial migration entry is on record as “no significant effects”.
